Tests used:
mice [1] = experiment: In vivo delivery of FLuc-circ-RNA lipid nanoparticles in mice; conditions: Fluc-circ-RNA LNP; for % of organ targeting: IV
Description: Lipid nanoparticles loaded with nucleic acid drugs were prepared according to step 2, replacing FLuc-mRNA with FLuc-circ-RNA (Hongene Biotech Corporation, Shanghai). After formulation, the nanoparticles were administered via intramuscular injection (into the quadriceps femoris muscle of mice), intravenous injection (into the tail vein of mice), intraperitoneal injection, or subcutaneous injection (subcutaneously on the back). Approximately 75 μL was injected per mouse, with a total of 3 mice per group. In vivo imaging (PerkinElmer, IVIS Lumina III) was performed after a certain period of time. Ten to fifteen minutes before imaging, 200 μL of a 15 mg/mL D-Luciferin working solution was injected intraperitoneally, followed by imaging analysis using the in vivo imaging system.

mice [2] = experiment: In vivo delivery of FLuc-mRNA lipid nanoparticles in mice, in vivo imaging (IVIS)
In short: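 Mice (n=3) received about 75 μL FLuc-mRNA LNP per mouse intramuscularly (rectus femoris), intravenously (tail vein), intraperitoneally or subcutaneously (back). After injection, D-luciferin (200 μL, 15 mg/mL) was given i.p. 10-15 min before IVIS imaging.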

[3] = Potential characterization of nucleic acid lipid nanoparticle preparations; type: physicochemical
In short: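 Zeta potential was read on a Malvern ZEN3700 after diluting 20 μL lipid nanoparticle solution (about 0.04 mg/mL mRNA) into 780 μL ultrapure water. Alternatively, a 27.5 μL sample in 200 μL water was first sized by dynamic light scattering, then diluted with 600 μL more water for potential measurement.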

[4] = Particle size and PDI of nucleic acid lipid nanoparticle preparations by dynamic light scattering; type: physicochemical
In short: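 Size read by DLS after diluting the LNP preparation (approx. 0.04 mg/mL mRNA) in ultrapure water with gentle pipette mixing. The same sample, recovered and diluted further with water, was then used for zeta potential measurement.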

[5] = IV, body, DMG-PEG2000:DSPC:Chol:compound 1.00:10.00:33.00:56.00, N/P 42, Fluc-mRNA
[6] = IV, liver, DMG-PEG2000:DSPC:Chol:compound 1.00:10.00:33.00:56.00, N/P 42
[7] = IV, liver, DMG-PEG2000:DSPC:Chol:compound 1.00:10.00:33.00:56.00, N/P 42, Fluc-mRNA
[8] = IV, lung, DMG-PEG2000:DSPC:Chol:compound 1.00:10.00:33.00:56.00, N/P 42
[9] = IV, lung, DMG-PEG2000:DSPC:Chol:compound 1.00:10.00:33.00:56.00, N/P 42, Fluc-mRNA
[10] = IV, spleen, DMG-PEG2000:DSPC:Chol:compound 1.00:10.00:33.00:56.00, N/P 42
[11] = IV, spleen, DMG-PEG2000:DSPC:Chol:compound 1.00:10.00:33.00:56.00, N/P 42, Fluc-mRNA
[12] = Fluc-circ-RNA LNP, preparation given IM
[13] = N/P 30, formulation cells blank (line above: DMG-PEG2000:DSPC:Chol:compound 1.00:10.00:33.00:56.00)
[14] = DMG-PEG2000:DSPC:Chol:compound 1.00:10.00:33.00:56.00, N/P 42
[15] = DMG-PEG2000:DSPC:Chol:Lipid 1.00:11.50:22.50:65.00, N/P 65, IV, liver
[16] = DMG-PEG2000:DSPC:Chol:Lipid 1.00:11.50:22.50:65.00, N/P 65, IV, lung
[17] = DMG-PEG2000:DSPC:Chol:Lipid 1.00:11.50:22.50:65.00, N/P 65, IV, spleen
[18] = DMG-PEG2000:DSPC:Chol:Lipid 1.00:16.00:48.00:35.00, N/P 18, IV, liver
[19] = DMG-PEG2000:DSPC:Chol:Lipid 1.00:16.00:48.00:35.00, N/P 18, IV, lung
[20] = DMG-PEG2000:DSPC:Chol:Lipid 1.00:16.00:48.00:35.00, N/P 18, IV, spleen
[21] = DMG-PEG2000:DSPC:Chol:Lipid 1.00:16.00:48.00:35.00, N/P 30, IV, liver
[22] = DMG-PEG2000:DSPC:Chol:Lipid 1.00:16.00:48.00:35.00, N/P 30, IV, lung
[23] = DMG-PEG2000:DSPC:Chol:Lipid 1.00:16.00:48.00:35.00, N/P 30, IV, spleen
[24] = Fluc-circ-RNA LNP, preparation given IV
[25] = DMG-PEG2000:DSPC:Chol:Lipid 1.00:11.50:22.50:65.00, N/P 65, mRNA LNP
[26] = DMG-PEG2000:DSPC:Chol:Lipid 1.00:16.00:48.00:35.00, N/P 18, mRNA LNP
[27] = DMG-PEG2000:DSPC:Chol:Lipid 1.00:16.00:48.00:35.00, N/P 30, mRNA LNP
[28] = DMG-PEG2000:DSPC:Chol:Lipid 1.47:11.16:38.97:48.40, N/P 30, mRNA LNP
[29] = DMG-PEG2000:DSPC:Chol:compound 1.40:11.15:38.95:48.50, N/P 30
[30] = DMG-PEG2000:DSPC:Chol:compound 2.50:11.50:56.00:30.00, N/P 42

CCCCCCC(CCCCCC)C(=O)OCCCCCCOC(=O)C(O)CN(CCCN(C)CCCN(CC(O)C(=O)OCCCCCCOC(=O)C(CCCCCC)CCCCCC)CC(O)C(=O)OCCCCCCOC(=O)C(CCCCCC)CCCCCC)CC(O)C(=O)OCCCCCCOC(=O)C(CCCCCC)CCCCCC (stereo not shown) [Compound L0293]
IVIS (mice [1]; IM, organ not given): 1.02E+08 | IVIS (mice [2]; IM, N/P 30, formulation cells blank (line above: DMG-PEG2000:DSPC:Chol:compound 1.00:10.00:33.00:56.00), Fluc-mRNA): 3.61E+07 | IVIS (mice [2]; [5]): 3.11E+08 | % of organ targeting (mice [2]; [6]): 18.15% | IVIS (mice [2]; [7]): 5.63E+07 | % of organ targeting (mice [2]; [8]): 3.34% | IVIS (mice [2]; [9]): 1.03E+07 | % of organ targeting (mice [2]; [10]): 78.51% | IVIS (mice [2]; [11]): 2.43E+08 | Zeta potential (mV) [3, 12]: 11.37 mV | Zeta potential (mV) [3, 13]: 9.98 mV | PDI [4, 14]: 0.10 | Particle size (nm) [4, 14]: 108.93 nm | PDI [4, 12]: 0.15 | Particle size (nm) [4, 12]: 106.57 nm | PDI [4, 13]: 0.10 | Particle size (nm) [4, 13]: 89.30 nm

CCCCCCCCCCCCOC(=O)C(O)CN(CCN(C)CCN(CC(O)C(=O)OCCCCCCCCCCCC)CC(O)C(=O)OCCCCCCCCCCCC)CC(O)C(=O)OCCCCCCCCCCCC (stereo not shown) [Compound L0262]
% of organ targeting (mice [1]; liver): 3.78% | % of organ targeting (mice [1]; lung): 8.14% | % of organ targeting (mice [1]; spleen): 88.08% | IVIS (mice [2]; DMG-PEG2000:DSPC:Chol:Lipid 1.00:11.50:22.50:65.00, N/P 65, IV, body): 2.54 × 10^7 | % of organ targeting (mice [2]; [15]): 1.47% | IVIS (mice [2]; [15]): 1.32 × 10^6 | % of organ targeting (mice [2]; [16]): 85.62% | IVIS (mice [2]; [16]): 7.69 × 10^7 | % of organ targeting (mice [2]; [17]): 12.91% | IVIS (mice [2]; [17]): 1.16 × 10^7 | IVIS (mice [2]; DMG-PEG2000:DSPC:Chol:Lipid 1.00:16.00:48.00:35.00, N/P 18, IV, body): 1.06 × 10^8 | % of organ targeting (mice [2]; [18]): 5.38% | IVIS (mice [2]; [18]): 5.61 × 10^6 | % of organ targeting (mice [2]; [19]): 1.85% | IVIS (mice [2]; [19]): 1.93 × 10^6 | % of organ targeting (mice [2]; [20]): 92.76% | IVIS (mice [2]; [20]): 9.67 × 10^7 | IVIS (mice [2]; DMG-PEG2000:DSPC:Chol:Lipid 1.00:16.00:48.00:35.00, N/P 30, IV, body): 2.91 × 10^7 | % of organ targeting (mice [2]; [21]): 15.31% | IVIS (mice [2]; [21]): 3.92 × 10^6 | % of organ targeting (mice [2]; [22]): 11.64% | IVIS (mice [2]; [22]): 2.98 × 10^6 | % of organ targeting (mice [2]; [23]): 73.05% | IVIS (mice [2]; [23]): 1.87 × 10^7 | IVIS (mice [2]; DMG-PEG2000:DSPC:Chol:Lipid 1.47:11.16:38.97:48.40, N/P 30, IM, whole body scan): 2.83 × 10^5 | tissue-targeting specificity (lung vs spleen depending on molar percentage of compound) (mice [2]; certain formulations, Table 2): strong tissue-targeting specificity | Zeta potential (mV) [3, 24]: 15.53 mV | PDI [4, 25]: 0.22 ± 0.01 | Particle size [4, 25]: 145.43 ± 1.37 nm | PDI [4, 26]: 0.16 ± 0.03 | Particle size [4, 26]: 135.90 ± 1.28 nm | PDI [4, 27]: 0.18 ± 0.02 | Particle size [4, 27]: 137.37 ± 1.50 nm | PDI [4, 28]: 0.24 ± 0.02 | Particle size [4, 28]: 93.36 ± 1.24 nm | PDI [4, 24]: 0.16 | Particle size (nm) [4, 24]: 128.4 nm

CCCCCCCCCCOC(=O)C(O)CN(CCCN(C)CCCN(CC(O)C(=O)OCCCCCCCCCC)CC(O)C(=O)OCCCCCCCCCC)CC(O)C(=O)OCCCCCCCCCC (stereo not shown) [Compound L0313]
% of organ targeting (mice [1]; liver): 3.39% | % of organ targeting (mice [1]; lung): 20.55% | % of organ targeting (mice [1]; spleen): 76.06% | IVIS (mice [2]; IM, DMG-PEG2000:DSPC:Chol:compound 1.40:11.15:38.95:48.50, N/P 30, Fluc-mRNA): 7.43E+05 | IVIS (mice [2]; [5]): 5.88E+07 | IVIS (mice [2]; IV, body, DMG-PEG2000:DSPC:Chol:compound 2.50:11.50:56.00:30.00, N/P 42, Fluc-mRNA): 5.20E+07 | % of organ targeting (mice [2]; [6]): 2.04% | IVIS (mice [2]; [7]): 3.78E+06 | % of organ targeting (mice [2]; IV, liver, DMG-PEG2000:DSPC:Chol:compound 2.50:11.50:56.00:30.00, N/P 42): 6.90% | IVIS (mice [2]; IV, liver, DMG-PEG2000:DSPC:Chol:compound 2.50:11.50:56.00:30.00, N/P 42, Fluc-mRNA): 8.68E+06 | % of organ targeting (mice [2]; [8]): 62.84% | IVIS (mice [2]; [9]): 1.17E+08 | % of organ targeting (mice [2]; IV, lung, DMG-PEG2000:DSPC:Chol:compound 2.50:11.50:56.00:30.00, N/P 42): 1.10% | IVIS (mice [2]; IV, lung, DMG-PEG2000:DSPC:Chol:compound 2.50:11.50:56.00:30.00, N/P 42, Fluc-mRNA): 1.38E+06 | % of organ targeting (mice [2]; [10]): 35.12% | IVIS (mice [2]; [11]): 6.52E+07 | % of organ targeting (mice [2]; IV, spleen, DMG-PEG2000:DSPC:Chol:compound 2.50:11.50:56.00:30.00, N/P 42): 92.00% | IVIS (mice [2]; IV, spleen, DMG-PEG2000:DSPC:Chol:compound 2.50:11.50:56.00:30.00, N/P 42, Fluc-mRNA): 1.16E+08 | Zeta potential (mV) [3, 29]: 13.57 mV | Zeta potential (mV) [3, 24]: 9.98 mV | PDI [4, 14]: 0.17 | Particle size (nm) [4, 14]: 75.31 nm | PDI [4, 29]: 0.18 | Particle size (nm) [4, 29]: 111.20 nm | PDI [4, 30]: 0.17 | Particle size (nm) [4, 30]: 82.60 nm | PDI [4, 24]: 0.2 | Particle size (nm) [4, 24]: 115.97 nm

Source: patent US12233161B1, “Lipids and lipid nanoparticle formulations” (LONGUIDE BIOPHARMA CORPORATION, priority 2024, dated 2025)
